Data published in US9738641B2, “Bicyclic inhibitors” (Kalvista Pharmaceuticals Limited, priority 2013, dated 2017).

Assays:
[1] = tested on: retinal vascular permeability and retinal blood flow; conditions: diabetic rats; cited from earlier work
[2] = in vivo; cited from earlier work
[3] = target: Human KLK1 (Homo sapiens (Human), UniProt P06870); assay: Determination of the IC50 for KLK1 (fluorogenic substrate H-DVal-Leu-Arg-AFC); assay type: biochemical; conditions: 37° C.
Method: Determination of the IC50 for KLK1
(§1) KLK1 inhibitory activity in vitro was determined using standard published methods (see e.g. Johansen et al., Int. J. Tiss. Reac. 1986, 8, 185; Shori et al., Biochem. Pharmacol., 1992, 43, 1209; Stürzebecher et al., Biol. Chem. Hoppe-Seyler, 1992, 373, 1025). Human KLK1 (Callbiochem) was incubated at 37° C. with the fluorogenic substrate H-DVal-Leu-Arg-AFC and various concentrations of the test compound. Residual enzyme activity (initial rate of reaction) was determined by measuring the change in optical absorbance at 410 nm and the IC50 value for the test compound was determined.

[4] = target: Human plasma kallikrein (Homo sapiens (Human), UniProt P03952); assay: Determination of the IC50 for plasma kallikrein (fluorogenic substrate H-DPro-Phe-Arg-AFC); assay type: biochemical; conditions: 37° C., read-out: IC50 (human PKal)
Human plasma kallikrein, sequence (P03952 391-638): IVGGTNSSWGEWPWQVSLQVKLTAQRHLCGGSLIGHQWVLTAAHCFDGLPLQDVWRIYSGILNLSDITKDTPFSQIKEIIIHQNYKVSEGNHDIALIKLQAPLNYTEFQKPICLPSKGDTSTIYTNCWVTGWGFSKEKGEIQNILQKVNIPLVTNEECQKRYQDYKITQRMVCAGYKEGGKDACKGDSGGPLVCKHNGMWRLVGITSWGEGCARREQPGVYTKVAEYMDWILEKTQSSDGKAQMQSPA
Human plasma kallikrein, sequence (P03952 20-390 partner): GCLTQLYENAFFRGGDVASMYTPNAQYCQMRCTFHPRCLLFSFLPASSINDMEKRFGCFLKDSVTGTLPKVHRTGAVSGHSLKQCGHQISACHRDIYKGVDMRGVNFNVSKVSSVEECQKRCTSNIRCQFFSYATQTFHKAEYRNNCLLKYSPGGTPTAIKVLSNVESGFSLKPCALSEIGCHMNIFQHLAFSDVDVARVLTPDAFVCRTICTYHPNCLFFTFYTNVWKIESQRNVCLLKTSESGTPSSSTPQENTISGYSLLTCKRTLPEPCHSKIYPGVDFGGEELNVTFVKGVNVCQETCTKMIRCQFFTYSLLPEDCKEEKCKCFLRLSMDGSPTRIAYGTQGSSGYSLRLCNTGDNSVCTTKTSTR
Method: Determination of the IC50 for Plasma Kallikrein
as §1, with “Plasma kallikrein” for “KLK1”, “plasma kallikrein (Protogen)” for “KLK1 (Callbiochem)”, “H-DPro-Phe-Arg-AFC” for “H-DVal-Leu-Arg-AFC”

Human KLK1, sequence (P06870 25-262): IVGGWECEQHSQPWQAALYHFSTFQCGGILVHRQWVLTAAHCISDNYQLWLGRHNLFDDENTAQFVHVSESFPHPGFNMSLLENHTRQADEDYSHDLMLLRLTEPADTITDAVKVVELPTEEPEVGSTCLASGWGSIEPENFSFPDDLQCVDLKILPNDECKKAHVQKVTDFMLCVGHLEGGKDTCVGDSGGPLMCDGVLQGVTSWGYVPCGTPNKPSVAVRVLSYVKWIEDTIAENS

N=C(N)c1ccc(CNC(=O)c2cnn(Cc3ccccc3)c2)cc1 [ASP-440]
effect on retinal vascular permeability and retinal blood flow abnormalities [1]: ameliorated both retinal vascular permeability and retinal blood flow abnormalities
oral availability [2]: poor oral availability

O=c1ccccn1Cc1ccc(Cn2ccc3c(NCc4cnc5[nH]ccc5c4)nccc32)cc1 [Example 3, 1-(4-{4-[(1H-Pyrrolo[2,3-b]pyridin-5-ylmethyl)-amino]-pyrrolo[3,2-c]pyridin-1-ylmethyl}-benzyl)-1H-pyridin-2-one]
IC50 [3]: 5.69 µM
IC50 [4]: 5.46 µM

c1ccc(-c2nc(Cn3ccc4c(NCc5cnc6[nH]ccc6c5)nccc43)cs2)cc1 [Example 4, [1-(2-Phenyl-thiazol-4-ylmethyl)-1H-pyrrolo[3,2-c]pyridin-4-yl]-(1H-pyrrolo[2,3-b]pyridin-5-ylmethyl)-amine]
IC50 [3]: 10.3 µM
IC50 [4]: 5.32 µM

NCc1ccc(CNc2nccc3c2ccn3CCCCc2ccccc2)cc1 [Example 5, (4-Aminomethyl-benzyl)-[1-(4-phenyl-butyl)-1H-pyrrolo[3,2-c]pyridin-4-yl]-amine]
IC50 [3]: 38.6 µM
IC50 [4]: 29 µM

Cc1cc(CN)ccc1CNc1nccc2c1ccn2Cc1csc(-c2ccccc2)n1 [Example 6, (4-Aminomethyl-2-methyl-benzyl)-[1-(2-phenyl-thiazol-4-ylmethyl)-1H-pyrrolo[3,2-c]pyridin-4-yl]-amine]
IC50 [3]: 8.14 µM
IC50 [4]: 8.59 µM

NCc1ccc(CNc2nccc3c2ccn3Cc2ccc(Cn3ccccc3=O)cc2)cc1 [Example 7, 1-{4-[4-(4-Aminomethyl-benzylamino)-pyrrolo[3,2-c]pyridin-1-ylmethyl]-benzyl}-1H-pyridin-2-one]
IC50 [3]: 29.9 µM
IC50 [4]: 5.37 µM

Cc1cc(CN)ccc1CNc1nccc2c1ccn2Cc1ccc(Cn2ccccc2=O)cc1 [Example 8, 1-{4-[4-(4-Aminomethyl-2-methyl-benzylamino)-pyrrolo[3,2-c]pyridin-1-ylmethyl]-benzyl}-1H-pyridin-2-one]
IC50 [3]: 5.3 µM
IC50 [4]: 6.3 µM

NCc1ccc(CNc2nccc3c2ccn3Cc2csc(-c3ccccc3)n2)cc1 [Example 9, (4-Aminomethyl-benzyl)-[1-(2-phenyl-thiazol-4-ylmethyl)-1H-pyrrolo[3,2-c]pyridin-4-yl]-amine]
IC50 [3]: 8.26 µM
IC50 [4]: 8.1 µM

Cc1cnn(Cc2ccc(CN3CCOc4c(NCc5ccc6c(N)nccc6c5)ncnc43)cc2)c1 [Example 10, (1-Amino-isoquinolin-6-ylmethyl)-{8-[4-(4-methyl-pyrazol-1-ylmethyl)-benzyl]-7,8-dihydro-6H-pyrimido[5,4-b][1,4]oxazin-4-yl}-amine]
IC50 [3]: 5.04 µM
IC50 [4]: 20.5 µM
